Experimental data as given in patent US20240156874A1, “METHODS FOR GENERATING STEM CELL-DERIVED BETA CELLS AND USES THEREOF” (President and Fellows of Harvard College, priority 2014, published 2024).

Experiments:
SC-β cells [1] = assay: In vitro SC-β cell function screen: stimulation index of SC-β cells generated with the agent; type: cell-based, human; settings: FIG. 1A
Procedure: Stimulation index=[insulin@20 mM glucose]/[insulin@2 mM glucose]. Relative Stim Index=Stim Index/Stim Index of Control.
FIG. 3 is a schematic illustration depicting an overview of the chemicals used and approach for the initial screen.

beta cells = settings: Table 1, background knowledge on the screened compounds; cited from earlier work
SC-β cells [2] = assay: In vivo function of SC-β cells generated with the agents, after transplantation into mice
Description: FIG. 4B is a Table quantifying the improvement in stimulation index and mean 30′ insulin post injection illustrated in FIG. 4A.
FIG. 5B is a Table quantifying the improvement in stimulation index and mean 30′ insulin post injection illustrated in FIG. 5A.

AMPK = settings: cited from earlier work
ALK5 = target: T1, ALK5 (Homo sapiens, UniProt P36897); settings: cited from earlier work
T1 sequence (P36897 34-503): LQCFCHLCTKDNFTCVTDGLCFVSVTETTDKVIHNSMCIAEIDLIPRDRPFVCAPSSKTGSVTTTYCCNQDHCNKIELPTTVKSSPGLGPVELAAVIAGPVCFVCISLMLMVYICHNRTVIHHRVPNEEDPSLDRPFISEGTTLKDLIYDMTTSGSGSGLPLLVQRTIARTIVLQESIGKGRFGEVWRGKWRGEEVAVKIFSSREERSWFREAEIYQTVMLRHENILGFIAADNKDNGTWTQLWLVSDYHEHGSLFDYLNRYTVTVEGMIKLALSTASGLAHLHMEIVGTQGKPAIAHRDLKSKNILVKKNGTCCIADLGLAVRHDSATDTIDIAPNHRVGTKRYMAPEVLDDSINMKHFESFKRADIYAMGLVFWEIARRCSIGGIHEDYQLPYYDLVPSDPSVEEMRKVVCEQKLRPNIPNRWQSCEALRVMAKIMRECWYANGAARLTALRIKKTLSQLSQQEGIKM

KDR (VEGFR-2) = KDR (VEGFR-2) (Homo sapiens, UniProt P35968); settings: cited from earlier work
KDR (VEGFR-2), sequence (P35968 20-1356, species assumed): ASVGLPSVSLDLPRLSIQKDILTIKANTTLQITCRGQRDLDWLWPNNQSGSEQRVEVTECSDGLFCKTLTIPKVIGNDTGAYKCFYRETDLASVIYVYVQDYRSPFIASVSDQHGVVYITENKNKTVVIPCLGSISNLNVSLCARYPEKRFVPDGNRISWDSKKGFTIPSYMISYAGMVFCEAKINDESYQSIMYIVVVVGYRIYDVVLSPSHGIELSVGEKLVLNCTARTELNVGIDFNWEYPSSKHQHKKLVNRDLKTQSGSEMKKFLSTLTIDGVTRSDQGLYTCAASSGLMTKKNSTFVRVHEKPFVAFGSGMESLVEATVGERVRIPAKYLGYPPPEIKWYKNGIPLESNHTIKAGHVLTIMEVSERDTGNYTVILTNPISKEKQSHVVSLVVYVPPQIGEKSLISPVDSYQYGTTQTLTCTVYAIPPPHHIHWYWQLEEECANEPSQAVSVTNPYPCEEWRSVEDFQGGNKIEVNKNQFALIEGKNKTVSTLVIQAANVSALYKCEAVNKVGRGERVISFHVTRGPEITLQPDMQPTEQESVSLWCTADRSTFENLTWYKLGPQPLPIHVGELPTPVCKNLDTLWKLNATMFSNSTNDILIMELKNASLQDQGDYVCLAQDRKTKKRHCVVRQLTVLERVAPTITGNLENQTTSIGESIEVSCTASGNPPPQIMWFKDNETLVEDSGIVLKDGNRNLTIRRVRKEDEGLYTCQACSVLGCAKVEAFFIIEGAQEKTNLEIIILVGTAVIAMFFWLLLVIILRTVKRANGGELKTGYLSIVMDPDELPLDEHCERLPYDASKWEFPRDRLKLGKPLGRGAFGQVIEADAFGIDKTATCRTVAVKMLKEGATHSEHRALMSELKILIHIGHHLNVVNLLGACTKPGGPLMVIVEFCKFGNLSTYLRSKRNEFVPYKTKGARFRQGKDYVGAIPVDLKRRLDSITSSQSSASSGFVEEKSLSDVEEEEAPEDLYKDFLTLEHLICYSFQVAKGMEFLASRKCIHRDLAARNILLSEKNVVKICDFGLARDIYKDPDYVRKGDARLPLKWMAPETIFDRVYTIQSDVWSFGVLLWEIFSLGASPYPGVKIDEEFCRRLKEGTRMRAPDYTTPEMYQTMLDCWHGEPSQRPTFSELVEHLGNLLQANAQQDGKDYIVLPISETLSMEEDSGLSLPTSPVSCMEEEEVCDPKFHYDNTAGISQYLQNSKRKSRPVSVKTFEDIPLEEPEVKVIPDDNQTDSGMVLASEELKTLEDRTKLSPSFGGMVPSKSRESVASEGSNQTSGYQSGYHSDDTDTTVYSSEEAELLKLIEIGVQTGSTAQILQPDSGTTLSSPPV

PDGFRβ = PDGFRβ (Homo sapiens, UniProt P09619); settings: cited from earlier work
PDGFRβ, sequence (P09619 33-1106, species assumed): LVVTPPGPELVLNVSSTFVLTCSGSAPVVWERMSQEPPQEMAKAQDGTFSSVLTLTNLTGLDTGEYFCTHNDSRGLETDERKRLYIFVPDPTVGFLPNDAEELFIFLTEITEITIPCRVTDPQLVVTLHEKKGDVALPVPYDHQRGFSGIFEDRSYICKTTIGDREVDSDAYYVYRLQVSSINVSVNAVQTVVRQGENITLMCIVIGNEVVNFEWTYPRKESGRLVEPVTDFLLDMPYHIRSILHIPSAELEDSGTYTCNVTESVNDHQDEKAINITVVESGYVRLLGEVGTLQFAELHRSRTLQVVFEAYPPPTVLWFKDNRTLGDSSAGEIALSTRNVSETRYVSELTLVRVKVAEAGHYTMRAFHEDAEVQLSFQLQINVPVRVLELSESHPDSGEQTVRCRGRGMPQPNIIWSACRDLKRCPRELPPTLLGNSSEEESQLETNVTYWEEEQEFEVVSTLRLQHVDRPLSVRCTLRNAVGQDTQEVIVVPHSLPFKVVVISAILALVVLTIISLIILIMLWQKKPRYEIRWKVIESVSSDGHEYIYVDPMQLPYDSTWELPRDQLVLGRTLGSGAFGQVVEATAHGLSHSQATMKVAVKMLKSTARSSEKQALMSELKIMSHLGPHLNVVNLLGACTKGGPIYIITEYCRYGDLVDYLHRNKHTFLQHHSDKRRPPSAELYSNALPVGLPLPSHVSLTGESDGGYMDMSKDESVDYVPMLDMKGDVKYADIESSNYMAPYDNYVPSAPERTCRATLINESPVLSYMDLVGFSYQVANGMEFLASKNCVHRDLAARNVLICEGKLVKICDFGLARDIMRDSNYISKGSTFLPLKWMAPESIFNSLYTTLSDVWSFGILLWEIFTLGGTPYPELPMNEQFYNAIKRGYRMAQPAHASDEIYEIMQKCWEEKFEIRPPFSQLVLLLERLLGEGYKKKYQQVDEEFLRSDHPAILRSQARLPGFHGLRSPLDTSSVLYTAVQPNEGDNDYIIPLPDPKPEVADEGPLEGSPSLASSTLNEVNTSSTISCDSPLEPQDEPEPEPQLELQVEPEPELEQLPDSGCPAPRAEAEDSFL

[3] = tested on: BMP4-induced phosphorylation of Smads 1, 5 and 8; settings: HEK293 cells; cited from earlier work
TGFRII = TGFRII (Homo sapiens, UniProt P37173); settings: relative to TGFRI kinase (ALK5); cited from earlier work
TGFRII, sequence (P37173 23-567): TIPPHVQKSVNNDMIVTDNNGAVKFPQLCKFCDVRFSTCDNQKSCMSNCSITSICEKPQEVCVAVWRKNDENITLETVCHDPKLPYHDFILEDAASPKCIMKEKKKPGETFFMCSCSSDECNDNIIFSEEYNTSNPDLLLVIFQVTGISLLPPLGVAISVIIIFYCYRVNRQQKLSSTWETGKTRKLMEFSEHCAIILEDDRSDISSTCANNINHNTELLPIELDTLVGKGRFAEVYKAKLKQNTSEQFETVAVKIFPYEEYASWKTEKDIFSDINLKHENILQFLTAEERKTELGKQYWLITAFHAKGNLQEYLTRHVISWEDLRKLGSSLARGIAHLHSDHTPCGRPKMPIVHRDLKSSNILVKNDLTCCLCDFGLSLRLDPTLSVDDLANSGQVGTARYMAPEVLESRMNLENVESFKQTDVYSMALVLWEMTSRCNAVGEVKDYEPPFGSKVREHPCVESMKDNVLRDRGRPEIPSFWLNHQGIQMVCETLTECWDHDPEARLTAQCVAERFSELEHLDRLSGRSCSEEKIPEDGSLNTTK

[4] = tested on: p38a, p38b, p38d, JNK1, EGFR, MAPKAPK2, MKK6, ERK2, PKC, PKA, PKD, CDC2, and CaMKII; settings: relative to TGFRI kinase (ALK5); cited from earlier work

SMILES | Stimulation index of resulting SC-β cells relative to control SC-β cells (SC-β cells [1]; concentration not given) | Effect on Beta Cells (beta cells) | other results
Cc1cccc(-c2nn(C(=S)Nc3ccccc3)cc2-c2ccnc3ccccc23)n1 [A83-01] | worse stimulation indices | Reduces apoptosis of pancreatic beta cells, increases insulin | –
CC(C)Oc1ccc(-c2cnc3c(-c4ccnc5ccccc45)cnn3c2)cc1 [DMH-1, 4-[6-[4-(1-Methylethoxy)phenyl]pyrazolo[1,5-a]pyrimidin-3-yl]-quinoline] | – | Aids differentiation of zebrafish beta cells | Stimulation index of resulting SC-β cells relative to control SC-β cells (SC-β cells [1]; agent 1 μM, Stimulation index=[insulin@20 mM glucose]/[insulin@2 mM glucose]): greater stimulation index; In vivo function of SC-β cells generated using the agent(s) (SC-β cells [2]; 2 weeks post-transplantation into mice, FIG. 4A): improved in vivo function; In vivo function of SC-β cells generated using the agent(s) (SC-β cells [2]; 4 weeks post-transplantation into mice, FIG. 5A): improved in vivo function; Inhibition of AMPK (AMPK): no detectable inhibition; Inhibition of ALK5 (ALK5): no detectable inhibition; Inhibition of KDR (VEGFR-2) (KDR (VEGFR-2)): no detectable inhibition; Inhibition of PDGFRβ receptors (PDGFRβ): no detectable inhibition; Effect on BMP4-induced phosphorylation of Smads 1, 5 and 8 [3]: block BMP4-induced phosphorylation of Smads 1, 5 and 8
Oc1ccc(-c2nc(-c3ccc(F)cc3)c(-c3ccncc3)[nH]2)cc1 [SB202190] | worse stimulation indices | Reduced apoptosis in beta cells | –
C[S+]([O-])c1ccc(-c2nc(-c3ccc(F)cc3)c(-c3ccncc3)[nH]2)cc1 (stereo not drawn) [SB203580] | worse stimulation indices | Reduced apoptosis in beta cells | –
NC(=O)c1ccc(-c2nc(-c3ccc4c(c3)OCO4)c(-c3ccccn3)[nH]2)cc1 [SB431542, 4-[4-(1,3-benzodioxol-5-yl)-5-(2-pyridinyl)-111-imidazol-2-yl]benzamide] | – | Reduces apoptosis of pancreatic beta cells, increases insulin | –
Fc1ccc(Cl)cc1-c1nc(Nc2ccncc2)c2nccnc2n1 [SD208] | – | Helps maintain growth of human pancreatic cancer cells | Specificity against TGFRII (TGFRII): > 100 fold; Specificity over members of a panel of related protein kinases [4]: at least 17 fold
N#CC(=C(/N)Sc1ccccc1N)/C(C#N)=C(\N)Sc1ccccc1N [U0126] | worse stimulation indices | Reduced apoptosis in beta cells | –
